Reference: patent US8962665B2, “Thiazole and oxazole kinase inhibitors” (AB Science, priority 2010, dated 2015)

Biological target: T1, Syk (Homo sapiens, UniProt P43405)
T1 construct: SYK kinase was purified as a full length protein in a baculovirus system near homogeneity; made in house; host or cells: baculovirus system
Assay: Syk kinase HTRF (Kinease TK) assay
Assay type: biochemical
Protocol: SYK kinase was purified as a full length protein in a baculovirus system near homogeneity. JAKs kinases (JAK1, JAK2 and JAK3) were purchased either from Invitrogen or from Millipore. All kinases assays were performed with the Kinease TK (tyrosine kinase) HTRF (Homogeneous Time Resolved Fluorescence) assay developed by Cisbio international. […] Reactions were initiated upon introduction of the enzyme and terminated with the addition of one reaction volume (25 μl) of HTRF detection buffer. Plates were incubated for one hour at room temperature and the time resolved Fluorescence resonance energy transfer signal was measured in a Pherastar FS microplate reader (BMG Labtech). All data are the average of triplicate results with a standard deviation<10%.

Row | IC50 | Structure (SMILES)
1 | < 1 µM | Cc1ccnc(Nc2cccc(-c3cnc(-c4cccnc4)s3)n2)c1 [Example 020, (4-Methyl-pyridin-2-yl)-[6-(2-pyridin-3-yl-thiazol-5-yl)-pyridin-2-yl]-amine]
2 | < 1 µM | O=C1CN(c2ncc(-c3cccc(Nc4cnccn4)n3)o2)CCN1 [Example 140, 4-{5-[6-(Pyrazin-2-ylamino)-pyridin-2-yl]-oxazol-2-yl}-piperazine-2-one]
3 | 1 to 10 µM | Cc1ccc(Nc2cccc(-c3cnc(-c4ccc5[nH]ccc5c4)o3)n2)nc1 [Example 116, {6-[2-(1H-Indol-5-yl)-oxazol-5-yl]-pyridin-2-yl}-(5-methyl-pyridin-2-yl)-amine]
4 | < 1 µM | Cc1ccc(Nc2cccc(-c3cnc(N4CCNC(=O)C4)o3)n2)nc1 [Example 118, 4-{5-[6-(5-Methyl-pyridin-2-ylamino)-pyridin-2-yl]-oxazol-2-yl}-piperazine-2-one]
5 | < 1 µM | Cc1ccnc(Nc2cccc(-c3cnc(-c4ccc[nH]c4=O)o3)n2)c1 [Example 045, 3-{5-[6-(4-methyl-pyridin-2-ylamino)-pyridin-2-yl]-oxazol-2-yl}-1H-pyridin-2-one]
6 | 1 to 10 µM | Cc1ccnc(Nc2cccc(-c3cnc(-c4c(C)cccc4C)o3)n2)c1 [Example 062, {6-[2-(2,6-Dimethyl-phenyl)-oxazol-5-yl]-pyridin-2-yl}-(4-methyl-pyridin-2-yl)-amine]
7 | 1 to 10 µM | Clc1ccnc(Nc2cccc(-c3cnc(-c4ccsc4)o3)n2)c1 [Example 120, (4-Chloro-pyridin-2-yl)-[6-(2-thiophen-3-yl-oxazol-5-yl)-pyridin-2-yl]-amine]
8 | 1 to 10 µM | Cc1ccnc(Nc2cccc(-c3cnc(-c4cccc(C#N)c4)s3)n2)c1 [Example 064, 3-{5-[6-(4-Methyl-pyridin-2-ylamino)-pyridin-2-yl]-thiazol-2-yl}-benzonitrile]
9 | < 1 µM | Cc1ccnc(Nc2cccc(-c3cnc(-c4ccccc4)s3)n2)c1 [Example 056, (4-Methyl-pyridin-2-yl)-[6-(2-phenyl-thiazol-5-yl)-pyridin-2-yl]-amine]
10 | < 1 µM | Cc1ccnc(Nc2cccc(-c3cnc(-c4ccccn4)s3)n2)c1 [Example 080, (4-Methyl-pyridin-2-yl)-[6-(2-pyridin-2-yl-thiazol-5-yl)-pyridin-2-yl]-amine]
11 | < 1 µM | Cc1ccnc(Nc2cccc(-c3cnc(-c4nc5ccccc5o4)o3)n2)c1 [Example 048, [6-(2-benzoxazole-2-yl-oxazol-5-yl)-pyridin-2-yl]-(4-methyl-pyridin-2-yl)-amine]
12 | < 1 µM | Cc1ccnc(Nc2cccc(-c3cnc(N4CCOCC4)o3)n2)c1 [Example 099, (4-Methyl-pyridin-2-yl)-[6-(2-morpholin-4-yl-oxazol-5-yl)-pyridin-2-yl]-amine]
13 | < 1 µM | Cc1ccnc(Nc2cccc(-c3cnc(-c4ccc5[nH]ccc5c4)o3)n2)c1 [Example 069, {6-[2-(1H-Indol-5-yl)-oxazol-5-yl]-pyridin-2-yl}-(4-methyl-pyridin-2-yl)-amine]
